We go through one substance from patent US20260234187A1, “ANTIMICROBIAL PEPTIDES” (MATERIAS S.R.L., priority 2020, published 2026).

One data set in a line: physchem. Format: physicochemical. The following applies: L or D configuration; ultrapure water, DMSO and DPBS. The procedure:
The tests were carried out in three of the most common solvents used in biological applications such as: ultrapure water; DPBS (Dulbecco's Phosphate Buffered Saline), i.e., a saline buffer containing potassium chloride (KCl), monobasic potassium phosphate (KH2PO4), sodium chloride (NaCl) and dibasic sodium phosphate (Na2HPO4-7H2O) and finally in an organic solvent such as dimethylsulfoxide (DMSO).

Data set [1] is classed as physicochemical. The procedure:
The structural and conformational characterization of the RiLK1 peptide was assessed by investigating its secondary structure by ^1H NMR spectroscopy in H2O and in a micellar solution of SDS at a concentration of 150 mM to mimic the condition of the bacterial cell membrane.
In fact, the representative structures of the RiLK1 peptide in water show a random orientation of both polar and hydrophobic amino acid side chains.
The helical structure appears well defined and stabilized by hydrophobic interactions of amino acid residues located on the opposite face. It is important to note that, in this arrangement, all the charged side chains are iso-oriented and well prone to interact with the negatively charged surface of the SDS micelles. Furthermore, the two tryptophan residues within the RiLK1 sequence are located at an optimal distance for their mutual stacking, thus contributing to the stabilization of the helix. It should be pointed out that the ^1H NMR spectra of the peptide IDR-1018-K6 (described in patent application WO2019012158) could not be acquired in the presence of micellar solutions of SDS since it is not soluble at the concentrations required to carry out these assays. […] Therefore, it is possible to assert that the NMR analysis in the presence of SDS has shown that the RiLK1 peptide of the present invention is capable of adopting the helix conformation, whereas the IDR-1018-K6 peptide (object of patent WO2019012158) has poor solubility and a heterogeneous system not suitable for NMR structural characterization (Table 2).

Data set [2] is classed as physicochemical. The following applies: 50 μM in 1M NaCl, 25° C. Here is the method:
The stability analysis of the RiLK1 peptide in the presence of a high concentration saline solution (1M NaCl) was carried out by reverse phase (RP) HPLC chromatography, performed on a μBondpack C18 column. 50 μM RiLK1 peptide was dissolved in 1 M NaCl and the samples were incubated at 25° C. and monitored for 9 days.

Data set [3] concerns Listeria monocytogenes LM2. Format: cell-based. The following applies: LM2, 6 h. Here is the method: The bactericidal activity of the RiLK1 peptide was assessed against both Gram positive (Listeria monocytogenes LM2 and Staphilococcus aureus) and Gram negative (Salmonella typhimurium and Escherichia coli) pathogenic bacteria. The assessment of the concentration of the two peptides capable of inhibiting 50% of bacterial growth (IC50) was performed by the broth microdilution assay as described in Wang H X and Ng TB (2003, Peptides 24:969-972). The standard deviations and the IC50s for triplicate incubations of each plate were determined using GraphPad Prism version 6.00 (Graph-Pad Software, La Jolla California USA). All experimental conditions investigated used the plate count method to estimate the bactericidal activity of the peptides. Specifically, the numbers of colonies grown on agar plates seeded with the bacterial suspensions in the absence or presence of the individual peptide dilutions were counted and compared. The standard deviations of the triplicate incubations of each plate were determined using statistical software. A control stock suspension was prepared in which 10^3 CFUs of L. monocytogenes were inoculated in 10 ml of Half Fraser Broth and serial dilutions (100 to 0.01 μM) of the suspension were performed. […]

In the next data set the test system is S. typhimurium. Format: cell-based, Salmonella typhimurium. The note with it: S. typhimurium. The procedure: The evaluation of the Minimum Bactericidal Concentration (MBC), i.e., the lowest concentration of antimicrobial agent capable of 99.9% inhibition of bacterial growth on plates, was carried out as described in Bílikova et al, (2015, Peptides 68:190-196). […] It should be noted that the peptide object of the present invention is more powerful and efficient than the peptide IDR-1018-K6 (described in patent application WO2019012158) against the pathogenic bacteria L. monocytogenes and S. typhimurium, with bactericidal concentration values 4-fold and 7-fold lower, respectively, compared to those shown by IDR-1018-K6.

Data set [4] relates to Aspergillus brasiliensis (ATCC 9341). Kind of data set: antifungal activity, plate count, MFC. Type of data set: cell-based. The following applies: A. brasiliensis; 25 μM, 6 h. The procedure:
The antifungal activity of the RiLK1 peptide was determined against Aspergillus brasiliensis. For this purpose, a stock culture was prepared in which 10^5 CFUs of A. brasiliensis were inoculated in 10 ml of buffered peptone water. A reference strain (ATCC 9341) was used for this fungal species. The culture was incubated for 6 h at 37° C. with the RiLK1 peptide at 25 μM concentrations. At the same time, control samples were incubated without adding the peptide. 100 μl of the samples thus prepared were seeded on DG18 plates (Dichloran 18% Glycerol Agar-ISO 21527-2) and incubated at 25° C. for 7 days. All experimental conditions investigated used the plate count method to estimate the fungicidal activity of the peptide. Specifically, the numbers of colonies grown on agar plates seeded with the fungal suspensions in the absence or presence of the individual peptide dilutions were counted and compared. The standard deviations of the triplicate incubations of each plate were determined using statistical software. The evaluation of the Minimum Fungicidal Concentration (MFC), i.e., the lowest concentration of antifungal agent capable of 99.9% inhibition of fungal growth on plates, was carried out as described in Bílikova et al, (2015, Peptides 68:190-196).

Like-named read-outs stand apart in the source and are kept apart here. Where no end group is shown, it is not given here.

Consider RLKWVRIWRR-NH2 [RiLK1, RLKWVRIWRR], for which the “maximum concentration completely dissolved” value in “physchem” is at most 10 mg/mL. For the same substance, the solubility (commonly the concentration that dissolves in the medium under given conditions) in data set [1] stood at 1000 µM; in data set [1] (pH 4.4), 900 µM. Besides, the yield entry in data set [2] (5 hours) is given as “+6%”; in data set [2] (24 hours), “+6%”; in data set [2] (29 hours), “+3%”; in data set [2] (48 hours), −1.5%^; in data set [2] (53 hours), “+4.3%^”; in data set [2] (6 days), −6.3%^. Also, the yield in data set [2] (9 days) is on record as −8%. Also, in data set [3], 460 nM corresponded to half-maximal inhibition (IC50). The “bactericidal concentration lower compared to IDR-1018-K6” value in the data set with S. typhimurium is 7 fold. The “Drop Log CFU/ml” value in data set [4] was 5 Log CFU/ml. Further, the “post-treatment decrease in the fungal load” value in data set [4] is recorded as 5 Log.
